Source: patent US20110053773A1, “METHODS OF IMPROVING NUTRITIONAL VALUE OF PLANTS” (UNIVERSITY OF TENNESSEE RESEARCH FOUNDATION, priority 2009, published 2011)

Legend:
Assay type in all cases: in vivo
[1] = tested on: sweet corn variety WH0809; experiment: Sugar content of sweet corn kernels (Example 2); settings: for Sugar content Raffanose: treated check 0.51; for Sugar content Maltose: treated check 0.61; for Sugar content Fructose: treated check 1.04; for Sugar content Glucose: treated check 1.91; for Sugar content Sucrose: treated check 10.72
Description: (§1) A field study was conducted at Greenback, TN to investigate POST applications of several herbicide inhibitors of photosynthesis for sweet corn safety and for changes in carbohydrate content in the kernels of sweet corn among treatments. Treatments included bentazon at 1120 and 2240 g ai/ha, linuron at 280 and 560 g ai/ha, metribuzin at 105 and 210 g ai/ha, and bromoxynil at 560 and 1120 g ai/ha. All treatments included a PRE application of a common residual corn herbicide in order to maintain weed free conditions. […] Sweet corn was harvested from the center two rows of each four row plot and weighed in the husk. Eight ears of corn were harvested from each plot and were pooled over replicates for analysis of key carbohydrates which included the sugars sucrose, fructose, glucose, maltose, and raffanose.

[2] = tested on: sweet corn variety WH0809; experiment: Sweet corn yield, harvested and weighed in the husk (Example 2); settings: treated check 9758.4
Description: as §1

[3] = tested on: sweet corn variety WH0809; experiment: Visual injury of sweet corn after POST herbicide inhibitors of photosynthesis (Example 2)
Description: as §1

[4] = 1120 g ai/ha + COC 1% v/v POST, 1st of 3 Injury columns, rating date not given
[5] = 1120 g ai/ha + COC 1% v/v POST, 2nd of 3 Injury columns (agrees with 14 DAT of b67)
[6] = 1120 g ai/ha + COC 1% v/v POST, 3rd of 3 Injury columns, rating date not given
[7] = 560 g ai/ha + COC 1% v/v POST, 1st of 3 Injury columns, rating date not given
[8] = 560 g ai/ha + COC 1% v/v POST, 2nd of 3 Injury columns (agrees with 14 DAT of b67)
[9] = 560 g ai/ha + COC 1% v/v POST, 3rd of 3 Injury columns, rating date not given

| Structure (SMILES) | Sugar content Raffanose ([1]; 1120 g ai/ha + COC 1% v/v POST) [mg/g dw] | Sugar content Maltose ([1]; 1120 g ai/ha + COC 1% v/v POST) [mg/g dw] | Sugar content Fructose ([1]; 1120 g ai/ha + COC 1% v/v POST) [mg/g dw] | Sugar content Glucose ([1]; 1120 g ai/ha + COC 1% v/v POST) [mg/g dw] | Sugar content Sucrose ([1]; 1120 g ai/ha + COC 1% v/v POST) [mg/g dw] | YIELD ([2]; 1120 g ai/ha + COC 1% v/v POST) [kg] | Injury [3, 4] [%] | Injury [3, 5] [%] | Injury [3, 6] [%] | Sugar content Raffanose ([1]; 560 g ai/ha + COC 1% v/v POST) [mg/g dw] | Sugar content Maltose ([1]; 560 g ai/ha + COC 1% v/v POST) [mg/g dw] | Sugar content Fructose ([1]; 560 g ai/ha + COC 1% v/v POST) [mg/g dw] | Sugar content Glucose ([1]; 560 g ai/ha + COC 1% v/v POST) [mg/g dw] | Sugar content Sucrose ([1]; 560 g ai/ha + COC 1% v/v POST) [mg/g dw] | YIELD ([2]; 560 g ai/ha + COC 1% v/v POST) [kg] | Injury [3, 7] [%] | Injury [3, 8] [%] | Injury [3, 9] [%] | other results |
| --- | --- | --- | --- | --- | --- | --- | --- | --- | --- | --- | --- | --- | --- | --- | --- | --- | --- | --- | --- |
| CC(C)N1C(=O)c2ccccc2NS1(=O)=O [BENTAZON, bentazon] | 0.56 | 0.96 | 1.69 | 2.65 | 13.18 | 10317 | 5 | 17 | 0 | – | – | – | – | – | – | – | – | – | Sugar content Raffanose ([1]; 2240 g ai/ha + COC 1% v/v POST): 0.84 mg/g dw; Sugar content Maltose ([1]; 2240 g ai/ha + COC 1% v/v POST): 1.26 mg/g dw; Sugar content Fructose ([1]; 2240 g ai/ha + COC 1% v/v POST): 1.78 mg/g dw; Sugar content Glucose ([1]; 2240 g ai/ha + COC 1% v/v POST): 3.41 mg/g dw; Sugar content Sucrose ([1]; 2240 g ai/ha + COC 1% v/v POST): 18.67 mg/g dw; YIELD ([2]; 2240 g ai/ha + COC 1% v/v POST): 10565.6 kg; Injury ([3]; 2240 g ai/ha + COC 1% v/v POST, 1st of 3 Injury columns, rating date not given): 12%; Injury ([3]; 2240 g ai/ha + COC 1% v/v POST, 2nd of 3 Injury columns (agrees with 14 DAT of b67)): 10%; Injury ([3]; 2240 g ai/ha + COC 1% v/v POST, 3rd of 3 Injury columns, rating date not given): 2% |
| N#Cc1cc(Br)c(O)c(Br)c1 [BROMOXYNIL, bromoxynil] | 0.54 | 0.60 | 1.77 | 2.70 | 14.50 | 9142.6 | 45 | 47 | 35 | 0.77 | 0.88 | 1.74 | 3.07 | 15.56 | 9436.2 | 37 | 35 | 27 | – |
| CON(C)C(=O)Nc1ccc(Cl)c(Cl)c1 [LINURON, linuron] | – | – | – | – | – | – | – | – | – | 0.48 | 0.59 | 1.39 | 2.33 | 13.30 | 9227.9 | 38 | 35 | 27 | Sugar content Raffanose ([1]; 280 g ai/ha + COC 1% v/v POST): 0.64 mg/g dw; Sugar content Maltose ([1]; 280 g ai/ha + COC 1% v/v POST): 0.95 mg/g dw; Sugar content Fructose ([1]; 280 g ai/ha + COC 1% v/v POST): 1.86 mg/g dw; Sugar content Glucose ([1]; 280 g ai/ha + COC 1% v/v POST): 3.22 mg/g dw; Sugar content Sucrose ([1]; 280 g ai/ha + COC 1% v/v POST): 12.02 mg/g dw; YIELD ([2]; 280 g ai/ha + COC 1% v/v POST): 8062.6 kg; Injury ([3]; 280 g ai/ha + COC 1% v/v POST, 1st of 3 Injury columns, rating date not given): 25%; Injury ([3]; 280 g ai/ha + COC 1% v/v POST, 2nd of 3 Injury columns (agrees with 14 DAT of b67)): 22%; Injury ([3]; 280 g ai/ha + COC 1% v/v POST, 3rd of 3 Injury columns, rating date not given): 25% |
